Measured values: ChEMBL document CHEMBL3045128, “Borrelidin, a potent antifungal agent: insight into the antifungal mechanism against Phytophthora sojae” (J Agric Food Chem, 2012)
Converted amounts (≈) assume the structure as drawn. The source made the active and inactive calls. No cut-off for these calls is given here.

Legend:
[1] = target: T1, Threonyl-tRNA synthase (Phytophthora sojae) (UniProt G3FIN0); assay: Binding affinity to C-terminal His6-tagged Phytophthora sojae race 1 recombinant ThrRS expressed in Escherichia coli BL21 (Codonplus DE3) assessed as Stern-Volmer quenching constant at 27 degC by fluorescence spectroscopy
T1 sequence (whole entry): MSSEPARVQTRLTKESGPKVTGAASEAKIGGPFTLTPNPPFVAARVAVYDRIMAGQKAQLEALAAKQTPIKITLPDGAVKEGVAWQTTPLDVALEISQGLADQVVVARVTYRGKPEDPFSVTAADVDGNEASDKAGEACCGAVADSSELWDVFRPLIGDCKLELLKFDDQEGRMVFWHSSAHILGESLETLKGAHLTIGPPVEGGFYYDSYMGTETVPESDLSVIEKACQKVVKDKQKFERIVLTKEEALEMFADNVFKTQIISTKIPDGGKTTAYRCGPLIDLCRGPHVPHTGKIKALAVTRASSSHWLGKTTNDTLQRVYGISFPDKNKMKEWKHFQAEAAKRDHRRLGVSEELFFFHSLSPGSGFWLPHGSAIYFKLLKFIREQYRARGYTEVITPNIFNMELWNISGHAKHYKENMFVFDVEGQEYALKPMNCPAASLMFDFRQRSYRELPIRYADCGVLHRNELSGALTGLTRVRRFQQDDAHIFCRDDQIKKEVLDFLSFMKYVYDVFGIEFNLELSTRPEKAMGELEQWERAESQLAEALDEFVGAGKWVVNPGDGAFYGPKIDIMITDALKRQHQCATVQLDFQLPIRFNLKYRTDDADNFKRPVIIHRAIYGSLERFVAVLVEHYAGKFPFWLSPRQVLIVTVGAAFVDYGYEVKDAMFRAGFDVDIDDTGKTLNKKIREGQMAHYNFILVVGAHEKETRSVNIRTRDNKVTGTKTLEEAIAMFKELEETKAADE

[2] = target: T1, Threonyl-tRNA synthase (Phytophthora sojae); assay: Binding affinity to C-terminal His6-tagged Phytophthora sojae race 1 recombinant ThrRS expressed in Escherichia coli BL21 (Codonplus DE3) assessed as increase in alpha helicity of the protein at protein to compound ratio of 1:5 by CD spectroscopy (reference value: 18.3%)
[3] = target: T1, Threonyl-tRNA synthase (Phytophthora sojae); assay: Binding affinity to C-terminal His6-tagged Phytophthora sojae race 1 recombinant ThrRS expressed in Escherichia coli BL21 (Codonplus DE3) assessed as decrease in beta sheet content of the protein at protein to compound ratio of 1:5 by CD spectroscopy (reference value: 25.6%); set-up: scale not given: the % may be the effect or the level left
[4] = target: T1, Threonyl-tRNA synthase (Phytophthora sojae); assay: Binding affinity to C-terminal His6-tagged Phytophthora sojae race 1 recombinant ThrRS expressed in Escherichia coli BL21 (Codonplus DE3) assessed as quenching rate constant at 37 degC by fluorescence spectroscopy
Phytophthora sojae [5] = assay: Antifungal activity against Phytophthora sojae race 1 assessed as radial growth inhibition at 0.008 ug/ml incubated at 28 degC in the dark for 6 to 8 days in presence of 0.2 to 0.6 mM glutamine; type: functional, organism-based
[6] = target: T1, Threonyl-tRNA synthase (Phytophthora sojae); assay: Binding affinity to C-terminal His6-tagged Phytophthora sojae race 1 recombinant ThrRS expressed in Escherichia coli BL21 (Codonplus DE3) assessed as static fluorescence quenching by FRET analysis
Phytophthora sojae [7] = assay: Antifungal activity against Phytophthora sojae race 1 assessed as radial growth inhibition at 0.008 ug/ml incubated at 28 degC in the dark for 6 to 8 days in presence of 0.2 to 0.6 mM L-aspargine; type: functional, organism-based
[8] = target: T1, Threonyl-tRNA synthase (Phytophthora sojae); assay: Binding affinity to C-terminal His6-tagged Phytophthora sojae race 1 recombinant ThrRS expressed in Escherichia coli BL21 (Codonplus DE3) assessed as increase in alpha helicity of the protein at protein to compound ratio of 1:1 by CD spectroscopy (reference value: 18.3%)
[9] = target: T1, Threonyl-tRNA synthase (Phytophthora sojae); assay: Binding affinity to C-terminal His6-tagged Phytophthora sojae race 1 recombinant ThrRS expressed in Escherichia coli BL21 (Codonplus DE3) assessed as Stern-Volmer quenching constant at 47 degC by fluorescence spectroscopy
[10] = target: T1, Threonyl-tRNA synthase (Phytophthora sojae); assay: Binding affinity to C-terminal His6-tagged Phytophthora sojae race 1 recombinant ThrRS expressed in Escherichia coli BL21 (Codonplus DE3) assessed as equilibrium binding constant by fluorescence spectroscopy
Phytophthora sojae [11] = assay: Antifungal activity against Phytophthora sojae race 1 assessed as radial growth inhibition at 0.008 ug/ml incubated at 28 degC in the dark for 6 to 8 days in presence of 0.2 to 0.6 mM alanine; type: functional, organism-based
[12] = target: T1, Threonyl-tRNA synthase (Phytophthora sojae); assay: Binding affinity to C-terminal His6-tagged Phytophthora sojae race 1 recombinant ThrRS expressed in Escherichia coli BL21 (Codonplus DE3) at 20 to 200 uM at 27 to 47 degC after 30 min by fluorescence quenching assay
[13] = target: T1, Threonyl-tRNA synthase (Phytophthora sojae); assay: Binding affinity to C-terminal His6-tagged Phytophthora sojae race 1 recombinant ThrRS expressed in Escherichia coli BL21 (Codonplus DE3) assessed as quenching rate constant at 27 degC by fluorescence spectroscopy
[14] = target: T1, Threonyl-tRNA synthase (Phytophthora sojae); assay: Binding affinity to C-terminal His6-tagged Phytophthora sojae race 1 recombinant ThrRS expressed in Escherichia coli BL21 (Codonplus DE3) assessed as positive entropy and enthalpy changes by themodynamic analysis
[15] = target: T1, Threonyl-tRNA synthase (Phytophthora sojae); assay: Binding affinity to C-terminal His6-tagged Phytophthora sojae race 1 recombinant ThrRS expressed in Escherichia coli BL21 (Codonplus DE3) assessed as decrease in beta sheet content of the protein at protein to compound ratio of 1:1 by CD spectroscopy (reference value: 25.6%); set-up: scale not given: the % may be the effect or the level left
Threonyl-tRNA synthase = target: T2, Threonyl-tRNA synthase (Phytophthora sojae, UniProt G3FIN0); assay: Inhibition of C-terminal His6-tagged Phytophthora sojae race 1 recombinant ThrRS expressed in Escherichia coli BL21 (Codonplus DE3) assessed as reduction in initial velocity at the step of threonine activation preincubated for 10 min with 4 uM enzyme before threonine addition measured after 30 min by HPLC analysis
T2 sequence (G3FIN0 whole entry): T1 sequence (whole entry)

Pythium = assay: Antifungal activity against Pythium species; type: functional, organism-based
Phytophthora sojae [16] = assay: Antifungal activity against Phytophthora sojae race 1 assessed as radial growth inhibition at 0.006 ug/ml incubated at 28 degC in the dark for 6 to 8 days in presence of 0.6 mM threonine; type: functional, organism-based
Phytophthora sojae [17] = assay: Antifungal activity against Phytophthora sojae race 1 assessed as radial growth inhibition at 0.008 ug/ml incubated at 28 degC in the dark for 6 to 8 days in presence of 0.2 to 0.6 mM tyrosine; type: functional, organism-based
[18] = target: T1, Threonyl-tRNA synthase (Phytophthora sojae); assay: Binding affinity to C-terminal His6-tagged Phytophthora sojae race 1 recombinant ThrRS expressed in Escherichia coli BL21 (Codonplus DE3) assessed as quenching rate constant at 47 degC by fluorescence spectroscopy
[19] = target: T1, Threonyl-tRNA synthase (Phytophthora sojae); assay: Binding affinity to C-terminal His6-tagged Phytophthora sojae race 1 recombinant ThrRS expressed in Escherichia coli BL21 (Codonplus DE3) assessed as Stern-Volmer quenching constant at 37 degC by fluorescence spectroscopy

SMILES: C[C@@H]1C[C@H](C)C[C@H](C)[C@@H](O)CC(=O)O[C@H]([C@@H]2CCC[C@H]2C(=O)O)C/C=C/C=C(/C#N)[C@H](O)[C@@H](C)C1 [BORRELIDIN]
- KSV [1]: 1.54 ×10⁴ /M
- Activity [2]: 25.7%
- Activity [3]: 21.8%
- Kq [4]: 1.33 ×10¹² L/mol/s
- growth inhibition (GI) (Phytophthora sojae [5]): Active
- Activity [6]: Active
- growth inhibition (GI) (Phytophthora sojae [7]): Active
- Activity [8]: 24.4%
- KSV [9]: 1.23 ×10⁴ /M
- KA [10]: 2.55 ×10⁵ /M
- growth inhibition (GI) (Phytophthora sojae [11]): Active
- Activity [12]: Active
- Kq [13]: 1.54 ×10¹² L/mol/s
- Activity [14]: Active
- Activity [15]: 22.4%
- IC50 (Threonyl-tRNA synthase): 8 µM
- Ki (Threonyl-tRNA synthase; read-out: Ki(app)): 10 µM
- EC50 (Pythium): 0.01 µg/mL (≈ 0.0204 µM)
- growth inhibition (GI) (Phytophthora sojae [16]): inactive
- growth inhibition (GI) (Phytophthora sojae [17]): Active
- Kq [18]: 1.23 ×10¹² L/mol/s
- KSV [19]: 1.33 ×10⁴ /M
